# Assay results: patent US9116112B2, “UV protective skin treatment compositions and screening methods” (JR Chem LLC, priority 2011, dated 2015)
# “And” between values parts separate entries of the source, which are not always exact repeats. Equal values may be shown once.
# How the values were obtained:
# [1] = Briggs-Rauscher Oscillation Reaction Method (BROM) antioxidant capacity; assay type: biochemical; settings: for calculated BROM value at product concentration: Arbutin at 0.2 wt. %, BHT at 0.1 wt. %; for BROM value of individual antioxidant: text b80, rounded values used for calculation; for BROM: Table 2, common antioxidants present in body fluids and tissues
# Balb/c 3T3 cells = assay: 3T3 Neutral Red Uptake Phototoxicity Test (3T3 NRU PT); assay type: cell-based, murine; settings: positive control, dose dates 03/10/11, 03/15/11, 03/22/11
# Description: The 3T3 Neutral Red Phototoxicity Test (3T3 NRU PT) was used to assess toxicological performance. It is a relatively new assay that was adopted by regulatory agencies such as OECD and FDA as an accepted method for the assessment of phototoxic potential of test substances. It is an in-vitro toxicological assessment test used to determine cytotoxic and photo(cyto)toxicity effect of a test article to murine fibroblasts in the presence or absence of UVA light (99% UVA/1% UVB). The 3T3 Neutral Red Uptake Phototoxicity Assay (3T3 NRU PT) can be utilized to identify the phototoxic effect of a test substance induced by the combination of test substance and light and is based on the comparison of the cytotoxic effect of a test substance when tested after the exposure and in the absence of exposure to a non-cytotoxic dose of UVA/vis light. Cytotoxicity is expressed as a concentration dependent reduction of the uptake of the vital dye—Neutral Red. […]
# For both the range finding screen and the definitive test, Balb/c 3T3 cells were seeded in the central 60 wells of duplicate 96-well microplates per test article and maintained in culture for 24 hours. […] After UV irradiation, the treatment medium was replaced with culture medium and after 24 hours, cell viability was determined by neutral red uptake for 3 hours. […]
# [2] = Table 2, Water or Lipid; cited from earlier work
compound,measurement,setting,value
"OC[C@H]1O[C@@H](Oc2ccc(O)cc2)[C@H](O)[C@@H](O)[C@@H]1O (racemic) [Arbutin Racemic mixture, Arbutin]",Result [s/μg] (BROM by Strength),"[1]; Table 3, solvent 50% Ethanol",47 s/µg
same,Result [s/μg] (BROM by Strength),"[1]; Table 3, solvent Water",49.4 s/µg
OC[C@H]1O[C@@H](Oc2ccc(O)cc2)[C@H](O)[C@@H](O)[C@@H]1O [8 Arbutin],Result [s/μg] (BROM by Strength),"[1]; Table 3, solvent Water",40.53 s/µg
NC(=O)NC1NC(=O)NC1=O (centres unmarked) [Allantoin],Result [s/μg] (BROM by Strength),"[1]; Table 3, solvent Water",0 s/µg
OC[C@H]1O[C@@H](Oc2ccc(O)cc2)[C@H](O)[C@@H](O)[C@@H]1O [Arbutin],calculated BROM value at product concentration,[1],0.1
same,BROM value of individual antioxidant,[1],50 s/µg
"O=C1O[C@H]([C@@H](O)CO)C(O)=C1O [Ascorbic Acid, Ascorbic acid]",BROM value,[1],0.00105 s/µg
same,electron scavenging capacity (BROM),[1],do not show measurable electron scavenging capacity
same,BROM,[1],0.00105 s/µg
same,Result [s/μg] (BROM by Strength),"[1]; Table 3, solvent Water",0.00105 s/µg
O=C1O[C@H]([C@@H](O)CO)C(O)=C1O[C@H]1O[C@H](CO)[C@@H](O)[C@H](O)[C@H]1O [Ascorbyl Glucoside],Result [s/μg] (BROM by Strength),"[1]; Table 3, solvent Water",No clear
"CC(C)c1c(C(=O)Nc2ccccc2)c(-c2ccccc2)c(-c2ccc(F)cc2)n1CC[C@@H](O)C[C@@H](O)CC(=O)O [Atorvastatin (Lipitor), Atorvastatin]",Result [s/μg] (BROM by Strength),"[1]; Table 3, solvent Ethanol",8.41 s/µg
"Cc1cc(C(C)(C)C)c(O)c(C(C)(C)C)c1 [BHT, butylatedhydroxytoluene]",calculated BROM value at product concentration,[1],0.03
same,Result [s/μg] (BROM by Strength),"[1]; Table 3, solvent 50% Ethanol",34.53 s/µg
same,Result [s/μg] (BROM by Strength),"[1]; Table 3, solvent Ethanol",29.4 s/µg
same,BROM value of individual antioxidant,[1],30 s/µg
"CN(C)CCCN1c2ccccc2Sc2ccc(Cl)cc21 [CPZ, Chloropromazine]",EC50 +SSL,Balb/c 3T3 cells; +SSL,0.394 µg/mL and 0.725 µg/mL and 0.682 µg/mL
same,EC50 No SSL,Balb/c 3T3 cells; dark,19.592 µg/mL and 24.805 µg/mL and 26.457 µg/mL
O=C[C@H](O)[C@@H](O)[C@H](O)[C@H](O)CO [D-Glucose],Result [s/μg] (BROM by Strength),"[1]; Table 3, solvent Water",0 s/µg
N[C@@H](CCC(=O)N[C@@H](CS)C(=O)NCC(=O)O)C(=O)O [Glutathione],BROM,[1],0.000991 s/µg
same,Result [s/μg] (BROM by Strength),"[1]; Table 3, solvent Water",0.000991 s/µg
same,Solubility,[2],Water
COc1ccc([C@@H]2CC(=O)c3c(O)cc(O[C@@H]4O[C@H](CO[C@@H]5O[C@@H](C)[C@H](O)[C@@H](O)[C@H]5O)[C@@H](O)[C@H](O)[C@H]4O)cc3O2)cc1O [Hesperidin],Result [s/μg] (BROM by Strength),"[1]; Table 3, solvent Water",5.38 s/µg
Oc1ccc(O)cc1 [Hydroquinone],Result [s/μg] (BROM by Strength),"[1]; Table 3, solvent 50% Ethanol",1.1 s/µg
same,Result [s/μg] (BROM by Strength),"[1]; Table 3, solvent Water",1.31 s/µg
COc1ccc(C(=O)c2ccccc2)c(O)c1 [Oxybenzone],Result [s/μg] (BROM by Strength),"[1]; Table 3, solvent Ethanol",0 s/µg
Oc1cccc(O)c1 [Resorcinol],Result [s/μg] (BROM by Strength),"[1]; Table 3, solvent Water",30.39 s/µg
CCCCC(CC)COC(=O)C(C#N)=C(c1ccccc1)c1ccc(OC)cc1 (centres unmarked) [Solastay S1],Result [s/μg] (BROM by Strength),"[1]; Table 3, solvent Ethanol",0 s/µg
CC(C)(C)c1cc(O)ccc1O [Tert-Butylhydroquinone],Result [s/μg] (BROM by Strength),"[1]; Table 3, solvent Ethanol",0.13 s/µg
CC1=C(/C=C/C(C)=C/C=C/C(C)=C/C(=O)O)C(C)(C)CCC1 [Tretinoin],BROM,[1],0 s/µg
same,Result [s/μg] (BROM by Strength),"[1]; Table 3, solvent Ethanol",0 s/µg
Cc1c(C)c2c(c(C)c1O)CCC(C)(C(=O)O)O2 (centres unmarked) [Trolox],electron scavenging capacity (BROM),[1],do not show measurable electron scavenging capacity
same,Result [s/μg] (BROM by Strength),"[1]; Table 3, solvent Ethanol",0.021 s/µg
"COc1c(O)c(C)c(C/C=C(\C)CC/C=C(\C)CC/C=C(\C)CC/C=C(\C)CC/C=C(\C)CC/C=C(\C)CC/C=C(\C)CC/C=C(\C)CC/C=C(\C)CCC=C(C)C)c(O)c1OC [Ubiquinol (coenzyme Q10), Ubiquinol]",BROM,[1],0 s/µg
same,Solubility,[2],Lipid
"O=c1[nH]c(=O)c2[nH]c(=O)[nH]c2[nH]1 [Uric Acid, Uric acid]",BROM,[1],9.14 s/µg
same,Result [s/μg] (BROM by Strength),"[1]; Table 3, solvent Water",9.14 s/µg
same,Solubility,[2],Water
CC(=O)Oc1c(C)c(C)c2c(c1C)CCC(C)(CCC[C@H](C)CCC[C@H](C)CCCC(C)C)O2 (some centres unmarked) [Vitamin E Acetate],electron scavenging capacity (BROM),[1],do not show measurable electron scavenging capacity
same,Result [s/μg] (BROM by Strength),"[1]; Table 3, solvent Ethanol",0 s/µg
"Cc1c(C)c2c(c(C)c1O)CC[C@@](C)(CCC[C@H](C)CCC[C@H](C)CCCC(C)C)O2 [α-Tocopherol (vitamin E), α-Tocopherol]",BROM value,[1],0 s/µg
same,BROM,[1],0 s/µg
same,Solubility,[2],Lipid
Carotenes,Solubility,[2],Lipid
